In patent US10807960B2, “Compounds, compositions, and methods for controlling biofilms” (KATHOLIEKE UNIVERSITEIT LEUVEN, priority 2015, dated 2020):
Read-outs that look alike come from different tables or passages of the source. Marks after values point to notes of the source that are not given here.

Columns and labels:
C. albicans SC5314 = assay: inhibition of C. albicans biofilms, cell titer blue (CTB) quantification; type: cell-based, Candida albicans; conditions: biofilm formation, read-out: BIC50
Procedure: The potential of the compounds to prevent C. albicans SC5314 biofilm formation was assessed using the cell titer blue (CTB) quantification method (26). For the CTB method, an overnight culture of C. albicans SC5314 was washed with PBS and a cell suspension of 10^6 cells/ml (OD600=0.1) was prepared in RPMI 1640 medium (pH 7.0). […] After 16 h of static incubation at 37° C., biofilms were washed and quantified with CTB as described previously.

[1] = system: C. albicans SC5314 + E. coli MG1655; assay: mixed C. albicans/E. coli biofilm assay, selective plating; type: cell-based, Candida albicans; E. coli; conditions: 37° C.; for CFUs % survival E. coli: E. coli in mixed biofilm with C. albicans
Procedure: Overnight cultures of C. albicans SC5314 (YPD) and E. coli MG1655 (TSB). were washed three times with PBS, after which they were diluted in RPMI medium to optical densities at 600 nm (OD600) of 1 and 0.01, respectively. Equal volumes of these cell suspensions were mixed, and 100 μl of this mixed cell suspension together with compound was added to the wells of a microtiter plate in triplicate. The concentrations 25 μM (0.0625% DMSO or ethanol) and 100 μM (0.25% DMSO or ethanol) were tested. After 24 h incubation at 37° C. the medium was removed and the biofilm was washed with PBS. Next, the cells were re-suspended in 100 μl of PBS by scraping off, sonication (1 min, 45 kHz, USC300-T; VWR, Radnor, Pa., USA) and vigorously pipetting up-and-down. Finally, dilution series were made, and quantification of E. coli MG1655 and C. albicans SC5314 populations was performed using selective plating on TSA plates containing 25 mg/L amphotericin B and YPD plates containing 100 μg/ml tetracycline, respectively. The percentage of C. albicans SC5314 and E. coli MG1655 cells was determined relative to the DMSO or ethanol control treatment.

[2] = system: C. albicans SC5314 + S. epidermidis; assay: mixed C. albicans/S. epidermidis biofilm assay, selective plating; type: cell-based, Candida albicans; Staphylococcus epidermidis; conditions: for CFUs % survival C.a.: C. albicans in mixed biofilm with S. epidermidis; for CFUs % survival C.a. / CFUs % survival S.e.: 37° C.; for CFUs % survival S.e.: S. epidermidis in mixed biofilm with C. albicans
Procedure: The concentrations 25 μM (0.0625% DMSO or ethanol) and 100 μM (0.25% DMSO or ethanol) were tested. After 24 h of incubation at 37° C., biofilms were washed with PBS and fresh medium with or without compounds was added. After further incubation for 48 h at 37° C., the biofilms were washed with PBS after which the cells were re-suspended in 100 μl of PBS by scraping off, sonication (1 min, 45 kHz, USC300-T; VWR, Radnor, Pa., USA) and vigorously pipetting up-and-down. Finally, the biofilm cells were diluted in PBS and plated on YPD agar plates containing 100 mg/L ampicillin and TSA plates containing 25 mg/L amphotericin B, to determine the number of fungal and bacterial CFUs after 2 days of incubation at 37° C., respectively. The percentage of C. albicans SC5314 and S. epidermidis cells was determined relative to the DMSO or ethanol control treatment.

[3] = system: C. albicans SC5314 + S. aureus SH1000; assay: mixed C. albicans/S. aureus biofilm assay, selective plating; type: cell-based, Candida albicans; Staphylococcus aureus; conditions: 37° C.; for CFUs % survival S.a.: S. aureus in mixed biofilm with C. albicans
Procedure: Overnight cultures of C. albicans SC5314 (YPD, 30° C.) and S. aureus SH1000 (LB, 37° C.) were washed with PBS, after which they were diluted in RPMI medium to obtain cell suspensions of 10^6 cells/ml for fungal cells and 10^8 cells/ml for bacteria. Equal volumes of these cell suspensions were mixed, and 100 μl of this mixed cell suspension together with compound was added to the wells of a microtiter plate in triplicate. The concentrations 25 μM (0.0625% DMSO or ethanol) and 100 μM (0.25% DMSO or ethanol) were tested. The plates were incubated at 37° C. for 90 min. After incubation the wells were washed twice with PBS, and 200 μl of the fresh RPMI medium with or without compounds was added in triplicate to the wells. After 24 h incubation at 37° C. the medium was removed and the biofilm was washed with PBS. Next, the cells were re-suspended in 100 μl of PBS by scraping off, sonication (1 min, 45 kHz, USC300-T; VWR, Radnor, Pa., USA) and vigorously pipetting up-and-down. Finally, dilution series were made, and quantification of S. aureus SH1000 and C. albicans SC5314 populations was performed using selective plating on TSA plates containing 25 mg/L amphotericin B and YPD plates containing 100 μg/ml tetracycline, respectively. The percentage of C. albicans SC5314 and S. aureus SH1000 cells was determined relative to the DMSO or ethanol control treatment.

[4] = system: E. coli TG1 + P. aeruginosa PA14; assay: mixed E. coli/P. aeruginosa biofilm assay, crystal violet; type: cell-based; conditions: 37° C. (Table 3)
Procedure: Overnight cultures of E. coli TG1 and P. aeruginosa PA14, were diluted 1/100 in the same vial of TSB 1/20 to form a mixed culture suspension.

[5] = system: S. aureus ATCC6538 + S. epidermidis; assay: mixed S. aureus/S. epidermidis biofilm assay, crystal violet; type: cell-based; conditions: 37° C. (Table 3)
Procedure: Overnight cultures of S. aureus ATCC6538 and S. epidermidis were grown in LB medium and were diluted 1/200 in the same vial of TSB to form a mixed culture suspension.

S. aureus SH1000 = assay: static peg (Calgary Biofilm Device) anti-biofilm assay, crystal violet and OD600; conditions: 37° C.
P. gingivalis ATCC33277 = assay: as above; conditions: 37° C.
E. coli TG1 = assay: as above; conditions: 37° C.
B. cepacia LMG1222T = assay: as above; conditions: 25° C.
[6] = C. albicans in mixed biofilm with E. coli MG1655, 25 μM
[7] = C. albicans in mixed biofilm with E. coli MG1655, 100 μM
[8] = C. albicans in mixed biofilm with S. aureus SH1000, 25 μM
[9] = C. albicans in mixed biofilm with S. aureus SH1000, 100 μM
[10] = mixed biofilm formation, read-out: BIC50
[11] = planktonic growth of mixed culture, read-out: IC50
[12] = read-out: BIC50, biofilm formation

Row | Structure (SMILES) | CFUs % survival C.a. [1, 6] [%] | CFUs % survival C.a. [1, 7] | CFUs % survival E. coli ([1]; 25 μM) [%] | CFUs % survival E. coli ([1]; 100 μM) | CFUs % survival C.a. ([2]; 25 μM) | CFUs % survival C.a. ([2]; 100 μM) | CFUs % survival S.e. ([2]; 25 μM) | CFUs % survival S.e. ([2]; 100 μM) | CFUs % survival C.a. [3, 8] [%] | CFUs % survival C.a. [3, 9] | CFUs % survival S.a. ([3]; 25 μM) [%] | CFUs % survival S.a. ([3]; 100 μM) | IC50 [4, 10] [µM] | IC50 [4, 11] [µM] | IC50 [5, 10] [µM] | IC50 [5, 11] [µM] | IC50 (S. aureus SH1000; planktonic growth) [µM] | IC50 (S. aureus SH1000; [12]) [µM] | IC50 (P. gingivalis ATCC33277; planktonic growth) [µM] | IC50 (P. gingivalis ATCC33277; [12]) [µM] | also measured
1 | CCCCCCCCn1c(-c2ccc(Cl)cc2)cnc1N [Compound 2] | 104.9 | 0.0* % | 158.6 | 0.1* % | <0.6* % | <0.2* % | 0.0* % | 0.0* % | 183.8 | 0.9* % | 87.7 | 0.2* % | 36.8 | 19.9 | ~7.2 | ~9.9 | 8.3 | 3.4 | 6 | 3.9 | IC50 (C. albicans SC5314): 6.2 µM; biofilm formation of C. albicans/S. epidermidis (in words) ([2]; 25 μM): completely inhibited; IC50 (E. coli TG1; planktonic growth): 7.7 µM; IC50 (E. coli TG1; [12]): ~6.5 µM; IC50 (B. cepacia LMG1222T; planktonic growth): > 400 µM; IC50 (B. cepacia LMG1222T; [12]): 145 µM
2 | CC(C)CNc1ncc(-c2ccc(Cl)cc2)[nH]1 [Compound 3] | 143.4 | 59.6* % | 138.5 | 63.0* % | 58.3* % | 235.1% | 64.6* % | 13.2* % | 165.7 | 141.3% | 124.6 | 51.8* % | 7.4 | > 400 | ~26.3 | ~140 | ~175 | ~200 | 5.1 | 5.3 | IC50 (C. albicans SC5314; 37° C.): 93.9 µM; IC50 (E. coli TG1; planktonic growth): 30 µM; IC50 (E. coli TG1; [12]): 110 µM; IC50 (B. cepacia LMG1222T; planktonic growth): > 400 µM; IC50 (B. cepacia LMG1222T; [12]): 88.1 µM
3 | Clc1ccc(-c2cnc(NC3CCCC3)[nH]2)cc1 [Compound 5] | 100.8 | 38.3* % | 100.6 | 105.6* % | 167.9% | 594.7% | 72.0% | 2.3* % | 232.4 | 120.6% | 75.4 | 74.5* % | 0.5 | > 400 | ~66.6 | ~91.7 | 71.5 | 70.6 | 4 | 5.7 | IC50 (C. albicans SC5314; 37° C.): 64 µM; activity against S. epidermidis in the C. albicans/S. epidermidis biofilm (in words) ([2]; 100 μM): complete inhibition; IC50 (E. coli TG1; planktonic growth): 17.1 µM; IC50 (E. coli TG1; [12]): ~45.7 µM; IC50 (B. cepacia LMG1222T; planktonic growth): > 400 µM; IC50 (B. cepacia LMG1222T; [12]): 331 µM
